Legend:
Type in all cases: cell-based
[1] = Cytotoxicity against human TZM-b1 cells after 3 days by XTT assay; conditions: for CC50 at 72 h: TZM-b1 cells; for CC50: tzm-b1, 72 h
[2] = system: MT2; assay: (§1) Cytotoxicity against human MT2 cells after 4 days by XTT assay; conditions: mt2, 96 h
[3] = Inhibition of X4-tropic HIV1 3B gp120-mediated entry into human MT2 cells assessed as Inhibition of p24 production incubated overnight followed by compound wash-out measured after 4 days post-infection by multi-cycle neutralization assay; conditions: Human immunodeficiency virus 1, 3B, MT2, 96 h
[4] = Inhibition of X4-tropic HIV1 HXB2 gp120-mediated entry into human TZM-b1 cells expressing CD4,CXCR4,CCR5,luciferase and beta-galactosidase after 3 days by single cycle neutralization assay; conditions: Human immunodeficiency virus 1, HXB2, TZM-b1, 72 h
[5] = Cytotoxicity against human TZM-b1 cells at >74 uM after 3 days by XTT assay; conditions: tzm-b1, 72 h
[6] = Cytotoxicity against human TZM-b1 cells at >60 uM after 3 days by XTT assay; conditions: tzm-b1, 72 h
[7] = as §1; conditions: MT2 cells
[8] = Cytotoxicity against human TZM-b1 cells at >75.5 uM after 3 days by XTT assay; conditions: tzm-b1, 72 h
[9] = Cytotoxicity against human TZM-b1 cells at >87 uM after 3 days by XTT assay; conditions: tzm-b1, 72 h
[10] = Cytotoxicity against human TZM-b1 cells at >77.8 uM after 3 days by XTT assay; conditions: tzm-b1, 72 h
[11] = Cytotoxicity against human TZM-b1 cells at >90 uM after 3 days by XTT assay; conditions: tzm-b1, 72 h
[12] = Cytotoxicity against human TZM-b1 cells at >88 uM after 3 days by XTT assay; conditions: tzm-b1, 72 h
[13] = system: MT2; assay: Cytotoxicity against human MT2 cells at >88 uM after 4 days by XTT assay; conditions: mt2, 96 h
[14] = Cytotoxicity against human TZM-b1 cells at >78.2 uM after 3 days by XTT assay; conditions: tzm-b1, 72 h
[15] = Cytotoxicity against human TZM-b1 cells at >75.8 uM after 3 days by XTT assay; conditions: tzm-b1, 72 h
[16] = Cytotoxicity against human TZM-b1 cells at >85 uM after 3 days by XTT assay; conditions: tzm-b1, 72 h
[17] = system: MT2; assay: Cytotoxicity against human MT2 cells at >41 uM after 4 days by XTT assay; conditions: mt2, 96 h
[18] = Cytotoxicity against human TZM-b1 cells at >22 uM after 3 days by XTT assay; conditions: tzm-b1, 72 h
[19] = system: MT2; assay: Cytotoxicity against human MT2 cells at >[…] after 4 days by XTT assay; conditions: mt2, 96 h
[20] = system: MT2; assay: Cytotoxicity against human MT2 cells at >62 uM after 4 days by XTT assay; conditions: mt2, 96 h
[21] = Cytotoxicity against human TZM-b1 cells at >84 uM after 3 days by XTT assay; conditions: tzm-b1, 72 h

| SMILES | CC50 at 72 h [1] [µM] | CC50 [2] [µM] | IC50 [3] [µM] | IC50 [4] [µM] | further results |
| --- | --- | --- | --- | --- | --- |
| CCn1cc(NC(=O)C(=O)Nc2ccc(Cl)cc2)cn1 | 8 | 10.7 | 11.9 | 5.9 |  |
| COC(=O)[C@@H]1C[C@@H](NC(=O)C(=O)Nc2ccc(Cl)cc2)[C@H](c2ccccc2)N1 | > 99.6 |  | > 24.9 | > 99.6 |  |
| C[C@@H](NC(=O)C(=O)Nc1ccc(Cl)cc1)[C@H](c1ccccc1)N1CCOCC1 | > 99.6 |  | > 24.9 | > 99.6 |  |
| Cc1nc(C(NC(=O)C(=O)Nc2ccc(C(F)(F)F)cc2)C2CCCCN2)sc1CCO (stereo unspecified) | > 74 | > 39 | 17.4 | 4.9 | Activity [5]: 35% |
| CC1(C)CC(NC(=O)C(=O)Nc2ccc(Cl)cc2)CC(C)(C)N1 | > 60 |  | 8 | 4.2 | Activity [6]: 10%; CC50 at 96 h [7]: 150 µM |
| Cc1nc(C(NC(=O)C(=O)Nc2ccc(C(F)(F)F)cc2)C2CCCCN2)sc1CO (mixture of isomers) | > 75.5 |  | 4.6 | 10.3 | Activity [8]: 10% |
| Cc1nc(C(NC(=O)C(=O)Nc2ccc(F)cc2F)C2CCCCN2)sc1CO (mixture of isomers) | > 87 | > 110 | 110 | > 87 |  |
| Cc1nc(C(NC(=O)C(=O)Nc2ccc(F)c(F)c2)C2CCCCN2)sc1CO (mixture of isomers) | > 87 |  | 14 | 8.4 | Activity [9]: 0% |
| CC(=O)c1ccc(NC(=O)C(=O)NC(c2nc(C)c(CO)s2)C2CCCCN2)cc1 (mixture of isomers) | > 86 | > 107 | 107 | > 86 |  |
| Cc1nc(C(NC(=O)C(=O)Nc2ccc(F)c(Cl)c2)C2CCCCN2)sc1CO (mixture of isomers) | > 77.8 |  | 9.5 | 6.5 | Activity [10]: 0% |
| Cc1nc(C(NC(=O)C(=O)Nc2ccc(F)cc2)C2CCCCN2)sc1CO (mixture of isomers) | > 90 | > 113 | 47.9 | 7.4 | Activity [11]: 0% |
| Cc1ccc(NC(=O)C(=O)NC(c2nc(C)c(CO)s2)C2CCCCN2)c(F)c1 (mixture of isomers) | > 88 | > 109 | 66 | > 88 |  |
| Cc1nc(C(NC(=O)C(=O)Nc2ccc(Cl)c(F)c2)C2CCCCN2)sc1CO (mixture of isomers) | 58.4 |  | 3.8 | 1.6 | CC50 at 96 h [7]: 77.8 µM |
| Cc1ccc(NC(=O)C(=O)NC(c2nc(C)c(CO)s2)C2CCCCN2)cc1F (mixture of isomers) | > 88 |  | 5.3 | 2.7 | Activity [12]: 0%; Activity [13]: 30% |
| Cc1nc(C(NC(=O)C(=O)NC2CCCCCC2)C2CCCCN2)sc1CO (mixture of isomers) | > 90 |  | 39.3 | > 90 |  |
| Cc1nc(C(NC(=O)C(=O)Nc2ccc(F)cc2F)C2CCCCN2)sc1CCO (mixture of isomers) | > 84 | > 105 | > 105 | > 84 |  |
| Cc1nc(C(NC(=O)C(=O)Nc2ccc(F)c(F)c2)C2CCCCN2)sc1CCO (mixture of isomers) | > 78.2 |  | 24.1 | 8.2 | Activity [14]: 10% |
| CC(=O)c1ccc(NC(=O)C(=O)NC(c2nc(C)c(CCO)s2)C2CCCCN2)cc1 (mixture of isomers) | > 77.3 | > 48.3 | 24.5 | > 77.3 |  |

| SMILES | CC50 at 72 h [1] [µM] | CC50 [2] [µM] | IC50 [3] [µM] | IC50 [4] [µM] | further results |
| --- | --- | --- | --- | --- | --- |
| Cc1nc(C(NC(=O)C(=O)Nc2ccc(F)c(Cl)c2)C2CCCCN2)sc1CCO (mixture of isomers) | > 75.8 |  | 19.5 | 9 | Activity [15]: 20%; CC50 at 96 h [7]: 94.7 µM |
| Cc1nc(C(NC(=O)C(=O)Nc2ccc(F)cc2)C2CCCCN2)sc1CCO (mixture of isomers) | > 88 |  | 21.6 | 22 | CC50 at 96 h [7]: 109 µM |
| Cc1ccc(NC(=O)C(=O)NC(c2nc(C)c(CCO)s2)C2CCCCN2)c(F)c1 (mixture of isomers) | > 78.8 |  | 45.8 | > 78.8 |  |
| Cc1ccc(NC(=O)C(=O)NC(c2nc(C)c(CCO)s2)C2CCCCN2)cc1F (mixture of isomers) | > 85 |  | 3.7 | 1.66 | CC50 at 96 h [7]: 85 µM; Activity [16]: 40% |
| Cc1nc(C(NC(=O)C(=O)Nc2ccc(Cl)c(F)c2)C2CCCCN2)sc1CCO (mixture of isomers) | 61 | > 41 | 3.5 | 1.98 | Activity [17]: 10% |
| Cc1nc(C(NC(=O)C(=O)NC2CCCCCC2)C2CCCCN2)sc1CCO (mixture of isomers) | > 88 |  | 19.6 | > 88 | CC50 at 96 h [7]: 60 µM |
| Cc1nc(C(NC(=O)C(=O)Nc2ccc(Cl)cc2)C2CCCCN2)sc1CO (mixture of isomers) | > 22 | > 108 | 4.7 | 4.3 | Activity [18]: 10%; Activity [19]: 40% |
| Cc1nc(C(NC(=O)C(=O)Nc2ccc(Cl)cc2)C2CCCNC2)sc1CO (mixture of isomers) | 60.2 | > 81 | 12 | 1.4 |  |
| Cc1nc(C(NC(=O)C(=O)Nc2ccc(Cl)cc2)C2CCCCN2)sc1CCO (mixture of isomers) |  | > 62 | 4.2 | 4.6 | CC50 [1]: 32.8 µM; Activity [20]: 0% |
| Cc1nc(C(NC(=O)C(=O)Nc2ccc(Cl)cc2)C2CCCNC2)sc1CCO (mixture of isomers) | 59.4 | > 78.5 | 13.1 | 0.65 |  |
| Cc1nc(C(NC(=O)C(=O)Nc2ccc(Cl)cc2)C2CCCCN2C)sc1CCO (mixture of isomers) |  |  | 28.6 | 1.9 | CC50 [1]: 36 µM; CC50 at 96 h [7]: 88 µM |
| CC(=O)N1CCCCC1C(NC(=O)C(=O)Nc1ccc(Cl)cc1)c1nc(C)c(CCO)s1 (mixture of isomers) | > 84 |  | > 52 | 19.7 | Activity [21]: 20% |
| Cc1nc(C(NC(=O)C(=O)Nc2ccc(Cl)cc2)C2CCCN2)sc1CO (mixture of isomers) |  |  | 15.4 | 4.8 | CC50 [1]: 12.4 µM; CC50 at 96 h [7]: 45 µM |
| Cc1nc(C(NC(=O)C(=O)Nc2ccc(Cl)cc2)C2CCCN2)sc1CCO (mixture of isomers) | 4.9 |  | 16.2 | 4.2 | CC50 at 96 h [7]: 42 µM |
| Cc1nc(C(NC(=O)C(=O)Nc2ccc(Cl)cc2)C2CCNCC2)sc1CO (racemic) | 81 | > 81 | 29.8 | 0.83 |  |
| Cc1nc(C(NC(=O)C(=O)Nc2ccc(Cl)cc2)C2CCNCC2)sc1CCO (racemic) | 85.4 | > 78.5 | 30.5 | 1 |  |
| CNCC(NC(=O)C(=O)Nc1ccc(Cl)cc1)c1nc(C)c(CCO)s1 (racemic) |  | > 43 | 24.3 | 2.8 | CC50 [1]: 16.6 µM |

— ChEMBL document CHEMBL2062517, “Design, synthesis, and antiviral activity of entry inhibitors that target the CD4-binding site of HIV-1” (J Med Chem, 2012)
